Measurements published in US9480253B2, “Use of 3-(2,4,6-Trimethylphenyl)-4-neopentylcarbonyloxy-5,5-tetramethylene-delta-3-dihydrofuran-2-one for controlling psyllids” (BAYER INTELLECTUAL PROPERTY GMBH, priority 2004, dated 2016).

Assays:
psyllids = conditions: under certain conditions; timing of application very limited (De Maeyer et al.); cited from earlier work
Trioza erythreae = experiment: Field spray test against psyllids on orange trees (Example A); format: in vivo; conditions: 144 g a.i./ha, 240 SC + 0.2% RME; for Efficacy in % Abbott 7TNAA: 540 l water per ha, 7 days after the first treatment; for Efficacy in % Abbott 7TNAB / Efficacy in % Abbott 13TNAB: two applications at interval of one week; for Efficacy in % Abbott 7TNAB: 7 days after the last treatment; for Efficacy in % Abbott 13TNAB: 13 days after the last treatment
Description: • Pest: Trioza erythreae • Plant: Orange
The compound of the formula (I) (240 SC) was tested at an application rate of 144 g a.i./ha+0.2% a.i. rapeseed oil methyl ester (RME) at 540 l water per ha in comparison with spirodiclofen application rate comparison.
Spraying was effected by means of a pneumatic knapsack sprayer.
The experiment was carried out using one tree per plot and three replications. In each case two applications were carried out at an interval of one week.
The activity against psyllids was determined by counting the number of live animals on 20 leaves per tree 7 days after the first treatment and 7 and 13 days after the last treatment. The efficacy was calculated with the aid of Abbott's formula.

[1] = system: insects from the family Aleyrodidae; conditions: known from EP-A-0 528 156; cited from earlier work
Paratrioza cockerelli = experiment: Field spray test against psyllids on tomato (Example B); format: in vivo; conditions: 72 g a.i./ha, 240 SC
Description: • Pest: Paratrioza cockerelli • Plant: Tomato The compound of the formula (I) (240 SC) was tested at an application rate of 72 […] water application rate of 345 l ha in comparison with Leverage (48 g a.i./ha imidacloprid+33 […]). Spraying was effected by means of a manually operated knapsack sprayer. The experiment was carried out with 10-m^2 plots and three replications. In each case two applications were carried out at an interval of one week. The activity against […] determined by counting the number of live animals on 10 leaves 7 days after the first treatment and 7 and 14 days after the second treatment. The efficacy was calculated with the aid of Abbott's formula.

[2] = system: insects from the family Psyllidae; experiment: Control of insects from the family Psyllidae, comparison with spirodiclofen; format: in vivo
[3] = known from EP-A-0 528 156; cited from earlier work

CCC(C)(C)C(=O)OC1=C(c2ccc(Cl)cc2Cl)C(=O)OC12CCCCC2 [Spirodiclofen, reference compound]
ovicidal activity against psyllids (psyllids): ovicidal activity
Efficacy in % Abbott 7TNAA (Trioza erythreae): 80.3 % Abbott
Efficacy in % Abbott 7TNAB (Trioza erythreae): 91.5 % Abbott
Efficacy in % Abbott 13TNAB (Trioza erythreae): 88.1 % Abbott

Cc1cc(C)c(C2=C(OC(=O)CC(C)(C)C)C3(CCCC3)OC2=O)c(C)c1 [Compound of the formula (I), 3-(2,4,6-Trimethylphenyl)-4-neopentylcarbonyloxy-5,5-tetramethylene-Δ^3-dihydrofuran-2-one]
activity against insects from the family Aleyrodidae [1]: active
Efficacy in % Abbott 7TNAA (Paratrioza cockerelli; 345 l water/ha, 7 days after the first treatment): 80.3 % Abbott
Efficacy in % Abbott 7TNAB (Paratrioza cockerelli; two applications at interval of one week, 7 days after the second treatment): 84.8 % Abbott
Efficacy in % Abbott 14TNAB (Paratrioza cockerelli; two applications at interval of one week, 14 days after the second treatment): 98.7 % Abbott
effectiveness in controlling insects from the family Psyllidae relative to spirodiclofen [2]: considerably more effective than spirodiclofen
Efficacy in % Abbott 7TNAA (Trioza erythreae): 95 % Abbott
Efficacy in % Abbott 7TNAB (Trioza erythreae): 97.5 % Abbott
Efficacy in % Abbott 13TNAB (Trioza erythreae): 95.2 % Abbott
acaricidal activity [3]: acaricidal activity
